Results: patent US8450357B2, “Compositions comprising an aryl pyrazole and/or a formamidine, methods and uses thereof” (Merial Limited, priority 2008, dated 2013)
Read-outs that look alike come from different tables or passages of the source.

Experiments:
Format in all cases: in vivo
[1] = system: Ctenocephalides felis fleas; assay: Study C: flea efficacy of Compound 1 and fipronil alone and with amitraz in dogs
Method: (§1) The effectiveness of Compound 1 alone, fipronil alone, Compound 1 in combination with amitraz, or fipronil in combination with amitraz, when administered once as topical solutions to dogs against induced infestations of Rhipicephalus sanguineus and Ctenocephalides felis were determined in a third clinical study. Thirty-six beagles (18 males and 18 females) were selected for the study. Six replicates of 6 animals each were formed. Treatment Group 1 dogs were treated with a placebo. Treatment Groups 2, 3, 4, 5 and 6 received their respective treatments as a topical spot-on application once on Day 0. Each formulation included diethyleneglycol monoethyl ether (transcutol) as carrier. The Treatment Groups were: Treatment Group 2: fipronil at 0.1 mL/kg body weight (10 mg/kg); Treatment Group 3: Compound 1 at 0.1 mL/kg (10 mg/kg) body weight; Treatment Group 4: Compound 1 at 0.2 mL/kg (20 mg/kg) body weight; Treatment Group 5: Compound 1 at 0.1 mL/kg (10 mg/kg) body weight plus amitraz at 0.04 mL/kg (8 mg/kg) body weight; Treatment Group 6: fipronil at 0.1 mL/kg (10 mg/kg) body weight plus amitraz at 0.04 mL/kg (8 mg/kg) body weight. Treatment was applied by parting the hair and applying the formulation(s) directly onto the skin on one spot at the midline of the neck, except for Groups 4, 5 and 6 which were applied in approximately equal volumes on two spots, one spot between the base of the skull and the shoulder blades and the other at the front of the shoulder blades.
(§2) All dogs were infested with approximately 50 Rhipicephalus sanguineus ticks on Days −1, 7, 14, 21, 28, 35, 42, 49 and 56. Dogs were also infested with approximately 100 Ctenocephalides felis fleas on Days −1, 8, 15, 22, 29, 36, 43, 50 and 57. Ectoparasites were removed and counted on Day 2, approximately 48 hours after treatment and on Days 9, 16, 23, 30, 37, 44, 51 and 58 approximately 24 hours after flea infestation and 48 hours after tick infestation. Tables 8 and 9 below show the % efficacy of formulations comprising fipronil at 0.1 ml/kg of body weight, Compound 1 at […], and fipronil and Compound 1 both at […] in combination with amitraz at 0.04 ml/kg of body weight compared to control group without active compounds. The percent reduction in flea counts of the treated groups with respect to the Control group over the study is shown in FIG. 14.

[2] = system: Rhipicephalus sanguineus ticks; assay: Study C: tick efficacy of Compound 1 and fipronil alone and with amitraz in dogs
Method: as §1
as §2, with “Ectoparasites were removed and counted on Day 2, approximately 48 hours after treatment and on Days 9, 16, 23, 30, 37, 44, 51 and 58 approximately 24 hours after flea infestation and 48 hours after tick infestation.” left out

[3] = system: adult Rhipicephalus sanguineus ticks; assay: whole plant or invertebrate; conditions: for Synergistic Ratio (EC50): EC50 alone divided by EC50 with Amitraz (12.5 ppm); for Synergistic Ratio (EC90): EC90 alone divided by EC90 with Amitraz (12.5 ppm); for mortality at 0.0016 ppm / mortality at 0.006 ppm / mortality at 0.025 ppm / mortality at 0.1 ppm / mortality at 0.4 ppm / mortality at 1.6 ppm / mortality at 6.25 ppm / mortality at 25 ppm: Rhipicephalus sanguineus
Source text: Dosages were serially diluted using this same formulation.

[4] = 6 h, read-out: 6 hour % Mortality Rep 1
[5] = 6 h, read-out: 6 hour % Mortality Rep 2
[6] = 6 h, read-out: 6 hour Avg. % Mortality
[7] = 24 h, read-out: 24 hour % Mortality Rep 1
[8] = 24 h, read-out: 24 hour % Mortality Rep 2
[9] = 24 h, read-out: 24 hour Avg. % Mortality
[10] = 48 h, read-out: 48 hour % Mortality Rep 1
[11] = 48 h, read-out: 48 hour % Mortality Rep 2
[12] = 48 h, read-out: 48 hour Avg. % Mortality

For `N#Cc1nn(-c2c(Cl)cc(C(F)(F)F)cc2Cl)c(N)c1[S+]([O-])C(F)(F)F` (centres unmarked) [fipronil, 5-amino-3-cyano-1-(2,6-dichloro-4-trifluoromethylphenyl)-4-trifluoromethylsulfinylpyrazole], which “% Efficacy against fleas” value ([1]; Day 2, 10 mg/kg) is on record?
The value was 100%.

What about the “% Efficacy against fleas” value ([1]; Day 9, 10 mg/kg) of the same compound?
The value was 100%.

What about the “% Efficacy against fleas” value ([1]; Day 16, 10 mg/kg) of the same compound?
The value was 100%.

And the “% Efficacy against fleas” value ([1]; Day 23, 10 mg/kg)?
The value was 100%.

And the “% Efficacy against fleas” value ([1]; Day 30, 10 mg/kg)?
The value was 100%.

And the “% Efficacy against fleas” value ([1]; Day 37, 10 mg/kg)?
The value was 100%.

And the “% Efficacy against fleas” value ([1]; Day 44, 10 mg/kg)?
The value was 99.8%.

What about the “% Efficacy against fleas” value ([1]; Day 51, 10 mg/kg) of the same compound?
Its value is 100%.

What about the “% Efficacy against fleas” value ([1]; Day 58, 10 mg/kg) of the same compound?
The value was 99.1%.

And the “% Efficacy (Tick Efficacy)” value ([2]; Day 1, 10 mg/kg)?
The value was 88.6%.

What about the “% Efficacy (Tick Efficacy)” value ([2]; Day 2, 10 mg/kg) of the same compound?
Its value is 90.9%.

What about the “% Efficacy (Tick Efficacy)” value ([2]; Day 8, 10 mg/kg) of the same compound?
Its value is 99.4%.

And the “% Efficacy (Tick Efficacy)” value ([2]; Day 9, 10 mg/kg)?
The value was 100%.

And the “% Efficacy (Tick Efficacy)” value ([2]; Day 15, 10 mg/kg)?
The value was 100%.

And the “% Efficacy (Tick Efficacy)” value ([2]; Day 16, 10 mg/kg)?
Its value is 100%.

What about the “% Efficacy (Tick Efficacy)” value ([2]; Day 23, 10 mg/kg) of the same compound?
The value was 98.8%.

What about the “% Efficacy (Tick Efficacy)” value ([2]; Day 30, 10 mg/kg) of the same compound?
Its value is 100%.

And the “% Efficacy (Tick Efficacy)” value ([2]; Day 37, 10 mg/kg)?
The value was 99%.

And the “% Efficacy (Tick Efficacy)” value ([2]; Day 44, 10 mg/kg)?
Its value is 98.2%.

What about the “% Efficacy (Tick Efficacy)” value ([2]; Day 51, 10 mg/kg) of the same compound?
The value was 92.8%.

What about the “% Efficacy (Tick Efficacy)” value ([2]; Day 58, 10 mg/kg) of the same compound?
The value was 82.7%.

What about the “Synergistic Ratio (EC50)” value ([3]; 6 hour Eval) of the same compound?
Its value is 14.7.

And the “Synergistic Ratio (EC90)” value ([3]; 6 hour Eval)?
The value was over 6.76.

And the “Synergistic Ratio (EC50)” value ([3]; 24 hour Eval)?
Its value is 156.8.

And the “Synergistic Ratio (EC90)” value ([3]; 24 hour Eval)?
The value was over 156.

What about the “Synergistic Ratio (EC50)” value ([3]; 48 hour Eval) of the same compound?
The value was 56.4.

And the “Synergistic Ratio (EC90)” value ([3]; 48 hour Eval)?
The value was 32.3.

What about the mortality at 0.0016 ppm [3, 4] of the same compound?
The mortality at 0.0016 ppm was 0%.

And the mortality at 0.006 ppm [3, 4]?
Its mortality at 0.006 ppm is 0%.

And the mortality at 0.025 ppm [3, 4]?
Its mortality at 0.025 ppm is 0%.

What about the mortality at 0.1 ppm [3, 4] of the same compound?
Its mortality at 0.1 ppm is 0%.

What about the mortality at 0.4 ppm [3, 4] of the same compound?
The mortality at 0.4 ppm was 0%.

And the mortality at 1.6 ppm [3, 4]?
Its mortality at 1.6 ppm is 0%.

And the mortality at 6.25 ppm [3, 4]?
The mortality at 6.25 ppm was 0%.

And the mortality at 25 ppm [3, 4]?
The mortality at 25 ppm was 40%.

What about the mortality at 0.0016 ppm [3, 5] of the same compound?
Its mortality at 0.0016 ppm is 0%.

And the mortality at 0.006 ppm [3, 5]?
The mortality at 0.006 ppm was 0%.

What about the mortality at 0.025 ppm [3, 5] of the same compound?
Its mortality at 0.025 ppm is 0%.

And the mortality at 0.1 ppm [3, 5]?
Its mortality at 0.1 ppm is 0%.

What about the mortality at 0.4 ppm [3, 5] of the same compound?
Its mortality at 0.4 ppm is 0%.

What about the mortality at 1.6 ppm [3, 5] of the same compound?
Its mortality at 1.6 ppm is 0%.

And the mortality at 6.25 ppm [3, 5]?
The mortality at 6.25 ppm was 20%.

What about the mortality at 25 ppm [3, 5] of the same compound?
Its mortality at 25 ppm is 60%.

And the mortality at 0.0016 ppm [3, 6]?
Its mortality at 0.0016 ppm is 0%.

And the mortality at 0.006 ppm [3, 6]?
Its mortality at 0.006 ppm is 0%.

And the mortality at 0.025 ppm [3, 6]?
The mortality at 0.025 ppm was 0%.

What about the mortality at 0.1 ppm [3, 6] of the same compound?
Its mortality at 0.1 ppm is 0%.

And the mortality at 0.4 ppm [3, 6]?
Its mortality at 0.4 ppm is 0%.

What about the mortality at 1.6 ppm [3, 6] of the same compound?
Its mortality at 1.6 ppm is 0%.

And the mortality at 6.25 ppm [3, 6]?
Its mortality at 6.25 ppm is 10%.

What about the mortality at 25 ppm [3, 6] of the same compound?
Its mortality at 25 ppm is 50%.

And the mortality at 0.0016 ppm [3, 7]?
The mortality at 0.0016 ppm was 0%.

And the mortality at 0.006 ppm [3, 7]?
The mortality at 0.006 ppm was 0%.

What about the mortality at 0.025 ppm [3, 7] of the same compound?
Its mortality at 0.025 ppm is 0%.

And the mortality at 0.1 ppm [3, 7]?
Its mortality at 0.1 ppm is 0%.

What about the mortality at 0.4 ppm [3, 7] of the same compound?
Its mortality at 0.4 ppm is 0%.

And the mortality at 6.25 ppm [3, 7]?
Its mortality at 6.25 ppm is 90%.

What about the mortality at 25 ppm [3, 7] of the same compound?
The mortality at 25 ppm was 80%.

What about the mortality at 0.0016 ppm [3, 8] of the same compound?
Its mortality at 0.0016 ppm is 0%.

And the mortality at 0.006 ppm [3, 8]?
The mortality at 0.006 ppm was 0%.

And the mortality at 0.025 ppm [3, 8]?
Its mortality at 0.025 ppm is 0%.

What about the mortality at 0.1 ppm [3, 8] of the same compound?
The mortality at 0.1 ppm was 0%.

And the mortality at 0.4 ppm [3, 8]?
The mortality at 0.4 ppm was 0%.

And the mortality at 1.6 ppm [3, 8]?
Its mortality at 1.6 ppm is 40%.

And the mortality at 6.25 ppm [3, 8]?
Its mortality at 6.25 ppm is 50%.

What about the mortality at 25 ppm [3, 8] of the same compound?
Its mortality at 25 ppm is 90%.

What about the mortality at 0.0016 ppm [3, 9] of the same compound?
The mortality at 0.0016 ppm was 0%.

And the mortality at 0.006 ppm [3, 9]?
Its mortality at 0.006 ppm is 0%.

And the mortality at 0.025 ppm [3, 9]?
The mortality at 0.025 ppm was 0%.

What about the mortality at 0.1 ppm [3, 9] of the same compound?
Its mortality at 0.1 ppm is 0%.

What about the mortality at 0.4 ppm [3, 9] of the same compound?
The mortality at 0.4 ppm was 0%.

And the mortality at 1.6 ppm [3, 9]?
The mortality at 1.6 ppm was 30%.

What about the mortality at 6.25 ppm [3, 9] of the same compound?
The mortality at 6.25 ppm was 70%.

And the mortality at 25 ppm [3, 9]?
The mortality at 25 ppm was 85%.

And the mortality at 0.0016 ppm [3, 10]?
Its mortality at 0.0016 ppm is 0%.

What about the mortality at 0.006 ppm [3, 10] of the same compound?
The mortality at 0.006 ppm was 0%.

What about the mortality at 0.025 ppm [3, 10] of the same compound?
Its mortality at 0.025 ppm is 0%.

And the mortality at 0.1 ppm [3, 10]?
Its mortality at 0.1 ppm is 0%.

And the mortality at 0.4 ppm [3, 10]?
Its mortality at 0.4 ppm is 20%.

And the mortality at 1.6 ppm [3, 10]?
Its mortality at 1.6 ppm is 50%.

What about the mortality at 6.25 ppm [3, 10] of the same compound?
Its mortality at 6.25 ppm is 100%.

And the mortality at 25 ppm [3, 10]?
Its mortality at 25 ppm is 100%.

What about the mortality at 0.0016 ppm [3, 11] of the same compound?
Its mortality at 0.0016 ppm is 0%.

And the mortality at 0.006 ppm [3, 11]?
The mortality at 0.006 ppm was 0%.

What about the mortality at 0.025 ppm [3, 11] of the same compound?
Its mortality at 0.025 ppm is 0%.

What about the mortality at 0.1 ppm [3, 11] of the same compound?
Its mortality at 0.1 ppm is 0%.

And the mortality at 0.4 ppm [3, 11]?
The mortality at 0.4 ppm was 20%.

What about the mortality at 1.6 ppm [3, 11] of the same compound?
The mortality at 1.6 ppm was 60%.

What about the mortality at 6.25 ppm [3, 11] of the same compound?
Its mortality at 6.25 ppm is 100%.

What about the mortality at 25 ppm [3, 11] of the same compound?
The mortality at 25 ppm was 100%.

What about the mortality at 0.0016 ppm [3, 12] of the same compound?
Its mortality at 0.0016 ppm is 0%.

What about the mortality at 0.006 ppm [3, 12] of the same compound?
The mortality at 0.006 ppm was 0%.

And the mortality at 0.025 ppm [3, 12]?
The mortality at 0.025 ppm was 0%.

What about the mortality at 0.1 ppm [3, 12] of the same compound?
Its mortality at 0.1 ppm is 0%.

And the mortality at 0.4 ppm [3, 12]?
Its mortality at 0.4 ppm is 20%.

And the mortality at 1.6 ppm [3, 12]?
The mortality at 1.6 ppm was 55%.

What about the mortality at 6.25 ppm [3, 12] of the same compound?
Its mortality at 6.25 ppm is 100%.

What about the mortality at 25 ppm [3, 12] of the same compound?
The mortality at 25 ppm was 100%.
